In the NIST ThermoML archive (doi:10.1016/j.jct.2005.07.009):
± gives the expanded uncertainty stated by the source.

Assays:
[1] = 295.15 K; 101.33 kPa; Liquid; Vibrating tube method
[2] = refractive index (Na D-line) (dimensionless); settings: 298.15 K; 101.33 kPa; Liquid; Standard Abbe refractometry
[3] = excess molar enthalpy (molar enthalpy of mixing); xn = mol fraction of the nth substance listed; settings: 298.15 K, 101 kPa, Liquid
[4] = xn = mol fraction of the nth substance listed; settings: 298.15 K, 101 kPa, Liquid, Vibrating tube method

With BrCCBr [1,2-dibromoethane] the mass density [1] was 2168.3 ± 1.3 kg/m3 and the refractive index [2] was 1.5357 ± 0.0008.

Compound BrCCCCBr [1,4-dibromobutane] has a mass density [1] of 1819.44 ± 1 kg/m3 and a refractive index [2] of 1.5163 ± 0.0008.

BrCCCCCCBr [1,6-dibromohexane] showed a mass density [1] of 1601.8 ± 2.5 kg/m3 and a refractive index [2] of 1.506 ± 0.0009.

Work on BrCCCCCBr [1,5-dibromopentane] yielded a mass density [1] of 1694.09 ± 2.6 kg/m3 and a refractive index [2] of 1.5099 ± 0.0009.

With BrCCCBr [1,3-dibromopropane] the mass density [1] was 1970.25 ± 1.1 kg/m3 and the refractive index [2] was 1.5204 ± 0.0008.

For BrCCCBr [1,3-dibromopropane] + CCCC(=O)OCC, the excess molar enthalpy ([3]; x2 = 0.0406) was 0.00528 ± 0.000454 kcal/mol, the excess molar enthalpy ([3]; x2 = 0.0875) was 0.0082 ± 0.000502 kcal/mol and the excess molar enthalpy ([3]; x2 = 0.142) was 0.00906 ± 0.000502 kcal/mol. It also gave an excess molar enthalpy ([3]; x2 = 0.1949) of 0.00832 ± 0.000502 kcal/mol, an excess molar enthalpy ([3]; x2 = 0.2497) of 0.00576 ± 0.000454 kcal/mol and an excess molar enthalpy ([3]; x2 = 0.3027) of 0.00174 ± 0.000406 kcal/mol. The excess molar enthalpy ([3]; x2 = 0.3525) was -0.00265 ± 0.000406 kcal/mol, the excess molar enthalpy ([3]; x2 = 0.4005) was -0.00731 ± 0.000478 kcal/mol and the excess molar enthalpy ([3]; x2 = 0.4399) was -0.0109 ± 0.00055 kcal/mol. The excess molar enthalpy ([3]; x2 = 0.4453) was -0.0114 ± 0.00055 kcal/mol, the excess molar enthalpy ([3]; x2 = 0.4914) was -0.0149 ± 0.000621 kcal/mol and the excess molar enthalpy ([3]; x2 = 0.5444) was -0.0171 ± 0.000669 kcal/mol. For the same compound, the excess molar enthalpy ([3]; x2 = 0.6028) was -0.0185 ± 0.000717 kcal/mol, the excess molar enthalpy ([3]; x2 = 0.6668) was -0.019 ± 0.000717 kcal/mol and the excess molar enthalpy ([3]; x2 = 0.7369) was -0.0185 ± 0.000717 kcal/mol. The excess molar enthalpy ([3]; x2 = 0.8067) was -0.0161 ± 0.000669 kcal/mol, the excess molar enthalpy ([3]; x2 = 0.8771) was -0.0119 ± 0.000574 kcal/mol and the mass density ([4]; x2 = 0.0436) was 1908.9 ± 1.2 kg/m3. The mass density ([4]; x2 = 0.0835) was 1854.01 ± 1.3 kg/m3, the mass density ([4]; x2 = 0.1381) was 1781.05 ± 1.4 kg/m3 and the mass density ([4]; x2 = 0.1859) was 1719.07 ± 1.6 kg/m3. It also gave a mass density ([4]; x2 = 0.2926) of 1586.65 ± 1.8 kg/m3, a mass density ([4]; x2 = 0.4637) of 1389.88 ± 2 kg/m3 and a mass density ([4]; x2 = 0.5238) of 1324.96 ± 2.1 kg/m3. It also gave a mass density ([4]; x2 = 0.6494) of 1195.57 ± 2.2 kg/m3, a mass density ([4]; x2 = 0.7131) of 1133.02 ± 2.3 kg/m3 and a mass density ([4]; x2 = 0.7811) of 1068.34 ± 2.3 kg/m3. The mass density ([4]; x2 = 0.852) was 1003.1 ± 2.3 kg/m3 and the mass density ([4]; x2 = 0.9215) was 941.15 ± 2.3 kg/m3.
